For assay [1], the system named is Mus musculus. Kind of assay: Analgesic activity against Swiss albino mice dosed at 200 mg/kg and activity calculated as percentage maximum possible effect (% MPE). Format: functional.
Assay [2] deals with Rattus norvegicus. The assay can be described thus: Antiinflammatory activity against Albino rat dosed at 400 mg/kg (3h). Format: functional.
Assay [3] deals with Mus musculus. The assay can be described thus: Analgesic activity against Swiss albino mice dosed at 300 mg/kg and activity calculated as percentage maximum possible effect (% MPE). Format: functional.
Assay [4] deals with Rattus norvegicus. Kind of assay: Antiinflammatory activity against Albino rat dosed at 300 mg/kg (3h). The class given is functional.
For assay [5], the system named is Mus musculus. The assay can be described thus: Analgesic activity against Swiss albino mice dosed at 400 mg/kg and activity calculated as percentage maximum possible effect (% MPE). Format: functional.
The subject of assay [6] is Rattus norvegicus. The assay can be described thus: Antiinflammatory activity against Albino rat dosed at 200 mg/kg (3h). Format: functional.
Assay [7] deals with Mus musculus. Kind of assay: Analgesic activity against Swiss albino mice dosed at 100 mg/kg and activity calculated as percentage maximum possible effect (% MPE); No activity. The arrangement: dose 100 mg/kg. Format: functional, organism-based.
The test system of assay [8] is Rattus norvegicus. The assay can be described thus: (§1) Antiinflammatory activity against Albino rat dosed at 100 mg/kg (3h). The class given is functional.
The subject of assay [9] is Mus musculus. The assay can be described thus: Analgesic activity against Swiss albino mice dosed at and activity calculated as percentage maximum possible effect (% MPE). The class given is functional.
The subject of assay [10] is Rattus norvegicus. Described as §1. The class given is functional, organism-based. The arrangement: dose 100 mg/kg.
In assay [11] the test system is Rattus norvegicus. Kind of assay: Antiinflammatory activity against Albino rat dosed at 300 mg/kg. The class given is functional.
In assay [12] the test system is Rattus norvegicus. Kind of assay: Antiinflammatory activity against Albino rat dosed at 400 mg/kg. Format: functional.
Assay [13] deals with Rattus norvegicus. The assay can be described thus: Antiinflammatory activity against Albino rat dosed at 200 mg/kg. Format: functional.

The source made the active and inactive calls. The rule behind the calls is not given here.

By inhibition in vivo is commonly meant the percentage by which the read-out fell short of the control. Regarding `CCc1nc2c3ccccc3oc2c2c1c(=O)oc1cc(OC)ccc12`, the MPE in the assay with Mus musculus [1] is listed as 24.3%; in the assay on Mus musculus [3], 24.4%; with Mus musculus [5], 39.5%. This compound gave an inhibition in vivo at 400 mg/kg in the assay on Rattus norvegicus [2] of 67.2%. In the assay with Rattus norvegicus [4], this compound showed an inhibition in vivo at 300 mg/kg of 78.1%. Testing at 200 mg/kg in the assay with Rattus norvegicus [6] gave an inhibition in vivo of 35.7%.
As for `CCc1nc2c3ccccc3oc2c2c1c(=O)oc1cc(C)ccc12`, the MPE in the assay with Mus musculus [1] is recorded as 2.4%; in the assay on Mus musculus [3], 4.9%; in the assay with Mus musculus [5], 7.1%. Also, the inhibition in vivo at 400 mg/kg with Rattus norvegicus [2] came to 46.5%. In addition, at 300 mg/kg the inhibition in vivo with Rattus norvegicus [4] was 41.7%. Besides, in the assay on Rattus norvegicus [6], the inhibition in vivo at 200 mg/kg was found to be 35.4%.
In the case of `Cc1nc2c3ccccc3oc2c2c1c(=O)oc1cc(Cl)ccc12`, the MPE is 4.7% in the assay on Mus musculus [1], 7.3% in the assay on Mus musculus [3] and 9.2% with Mus musculus [5]. In the assay on Rattus norvegicus [2], this compound registered an inhibition in vivo at 400 mg/kg of 27.4%. Further, in the assay on Rattus norvegicus [4], testing at 300 mg/kg gave an inhibition in vivo of 25.9%. For the same compound, the inhibition in vivo at 200 mg/kg in the assay with Rattus norvegicus [6] is 21.6%.
`Cc1ccc2c(c1)oc(=O)c1c(C)nc3c4ccccc4oc3c12`: the MPE with Mus musculus [1] is 22.9%; with Mus musculus [3] it was 24.9%; with Mus musculus [5], 18.3%. The compound also gave an inhibition in vivo at 400 mg/kg with Rattus norvegicus [2] of 97%. In addition, the inhibition in vivo at 300 mg/kg in the assay on Rattus norvegicus [4] was 88.7%. Besides, the inhibition in vivo at 200 mg/kg in the assay with Rattus norvegicus [6] stood at 80.7%.
As to `O=C(O)Cc1ccccc1Nc1c(Cl)cccc1Cl` [DICLOFENAC SODIUM], the MPE result in the assay with Mus musculus [7] was “inactive”. In the assay with Rattus norvegicus [8], this compound registered an inhibition in vivo at 100 mg/kg of 94.5%.
With `CC(=O)Oc1ccccc1C(=O)O` [ASPIRIN], the MPE with Mus musculus [9] is given as 74.9%. In the assay with Rattus norvegicus [10], the inhibition entry is “inactive”.
As to `O=c1oc2cc(Cl)ccc2c2c1cnc1c3ccccc3oc12`, the MPE is on record as 1.8% in the assay with Mus musculus [1], 3.4% in the assay on Mus musculus [3] and 6.8% in the assay with Mus musculus [5]. In the assay with Rattus norvegicus [2], this compound registered an inhibition in vivo at 400 mg/kg of 29.4%. Moreover, testing at 300 mg/kg in the assay on Rattus norvegicus [4] gave an inhibition in vivo of 26.3%. Moreover, in the assay on Rattus norvegicus [6], at 200 mg/kg the inhibition in vivo was 19.2%.
Consider `Cc1ccc2oc(=O)c3cnc4c5ccccc5oc4c3c2c1`, for which the MPE is reported as 20.9% in the assay with Mus musculus [1], 32.9% in the assay on Mus musculus [3] and 20.9% with Mus musculus [5]. Also, the inhibition in vivo at 400 mg/kg in the assay with Rattus norvegicus [2] was 67.2%. Besides, the inhibition in vivo at 300 mg/kg in the assay on Rattus norvegicus [4] worked out at 96.3%. For the same compound, 200 mg/kg produced 89% inhibition in vivo in the assay with Rattus norvegicus [6].
Consider `Cc1ccc2c(c1)oc(=O)c1cnc3c4ccccc4oc3c12`, for which the MPE was 1.3% in the assay on Mus musculus [1], 22.9% with Mus musculus [3] and 10.8% with Mus musculus [5]. Also, in the assay on Rattus norvegicus [11], 300 mg/kg produced 31.4% inhibition in vivo. In the assay on Rattus norvegicus [12], this compound yielded an inhibition in vivo at 400 mg/kg of 18.3%. Also, the inhibition in vivo at 200 mg/kg in the assay with Rattus norvegicus [13] stood at 24.6%.
